Calls of active or inactive are those of the source. No cut-off for these calls is given here.
Legend:
NCI-H929 [1] = test: Induction of apoptosis in human NCI-H929 cells assessed as late apoptotic cells at […] after 48 hrs by Annexin-V/propidium iodide staining based flow cytometric method (reference value: 0.23%); assay type: functional
NCI-H929 [2] = test: Induction of apoptosis in human NCI-H929 cells assessed as early apoptotic cells at […] after 48 hrs by Annexin-V/propidium iodide staining based flow cytometric method (reference value: 17.1%); assay type: functional
Plasma [3] = test: Anticoagulant activity in human platelet poor plasma assessed as activated partial thromboplastin time at 100 uM incubated for 15 mins at room temperature and subsequent incubation for 2 mins at 37 degreeC followed by cephalin addition and measured after 2 mins for every secs in presence of CaCl2; assay type: functional
NCI-H929 [4] = test: Induction of apoptosis in human NCI-H929 cells assessed as necrotic cells at […] after 48 hrs by Annexin-V/propidium iodide staining based flow cytometric method (reference value: 0.0034%); assay type: functional
NCI-H929 [5] = test: Cytotoxicity against human NCI-H929 cells assessed as reduction in cell viability at […] after 48 hrs by CCK8 assay; assay type: functional, cell-based
[6] = Mutagenicity in Salmonella typhimurium TA98 at 500 uM by Ames test; assay type: toxicity; settings: salmonella enterica subsp. enterica serovar typhimurium
RPMI-8226 [7] = test: Induction of apoptosis in human RPMI8226 cells assessed as necrotic cells at […] after 48 hrs in presence of bortezomib by Annexin-V/propidium iodide staining based flow cytometric method (reference value: 0.090%); assay type: functional
[8] = Mutagenicity in Salmonella typhimurium TA100 at 500 uM by Ames test; assay type: toxicity; settings: salmonella enterica subsp. enterica serovar typhimurium
RPMI-8226 [9] = test: Cell cycle arrest in human RPMI8226 cells assessed as accumulation at G0/G1 phase at […] after 48 hrs by propidium iodide/RNase staining based flow cytometric method; assay type: functional
RPMI-8226 [10] = test: Cell cycle arrest in human RPMI8226 cells assessed as accumulation at S phase at […] in presence of bortezomib after 48 hrs by propidium iodide/RNase staining based flow cytometric method relative to bortezomib; assay type: functional
NCI-H929 [11] = test: Potentiation of bortezomib-induced cytotoxicity against human NCI-H929 cells assessed as reduction in cell viability at […] after 48 hrs in presence of bortezomib by CCK8 assay; assay type: functional, cell-based
RPMI-8226 [12] = test: Induction of apoptosis in human RPMI8226 cells assessed as viable cells at […] after 48 hrs in presence of bortezomib by Annexin-V/propidium iodide staining based flow cytometric method (reference value: 98.7%); assay type: functional; settings: RPMI-8226, 48 h, read-out: Activity
Platelet = test: Antiplatelet activity in human platelet rich plasma assessed as inhibition of arachidonic acid-induced platelet aggregation preincubated for 2 mins followed by arachidonic acid addition by turbidimetric method; assay type: functional, cell-based
NCI-H929 [13] = test: Induction of apoptosis in human NCI-H929 cells assessed as late apoptotic cells at […] after 48 hrs in presence of bortezomib by Annexin-V/propidium iodide staining based flow cytometric method (reference value: 0.23%); assay type: functional
[14] = Genotoxicity in Escherichia coli PQ37 at 500 uM after overnight incubation by SOS chromotest; assay type: toxicity
[15] = Genotoxicity in Escherichia coli PQ35 at 500 uM after overnight incubation by SOS chromotest; assay type: toxicity
[16] = Mutagenicity in Salmonella typhimurium TA102 at 500 uM by Ames test; assay type: toxicity; settings: salmonella enterica subsp. enterica serovar typhimurium
[17] = Mutagenicity in Salmonella typhimurium TA97 at 500 uM by Ames test; assay type: toxicity; settings: salmonella enterica subsp. enterica serovar typhimurium
NCI-H929 [18] = test: Induction of apoptosis in human NCI-H929 cells assessed as viable cells at […] after 48 hrs in presence of bortezomib by Annexin-V/propidium iodide staining based flow cytometric method (reference value: 82.6%); assay type: functional; settings: NCI-H929, 48 h, read-out: Activity
[19] = Hemolytic activity in erythrocytes (unknown origin) at 100 uM after 3 hrs by spectrophotometric analysis; assay type: ADME, cell-based, Erythrocyte; settings: read-out: Activity
RPMI-8226 [20] = test: Cell cycle arrest in human RPMI8226 cells assessed as accumulation at G0/G1 phase at […] in presence of bortezomib after 48 hrs by propidium iodide/RNase staining based flow cytometric method relative to bortezomib; assay type: functional
NCI-H929 [21] = test: Induction of apoptosis in human NCI-H929 cells assessed as viable cells at […] after 48 hrs by Annexin-V/propidium iodide staining based flow cytometric method (reference value: 82.6%); assay type: functional; settings: NCI-H929, 48 h, read-out: Activity
NCI-H929 [22] = test: Cell cycle arrest in human NCI-H929 cells assessed as accumulation at S phase at […] in presence of bortezomib after 48 hrs by propidium iodide/RNase staining based flow cytometric method relative to bortezomib alone; assay type: functional
RPMI-8226 [23] = test: Potentiation of bortezomib-induced cytotoxicity against human RPMI8226 cells assessed as reduction in cell viability at […] after 48 hrs in presence of bortezomib by CCK8 assay; assay type: functional
RPMI-8226 [24] = test: Cell cycle arrest in human RPMI8226 cells assessed as accumulation at S phase at […] after 48 hrs by propidium iodide/RNase staining based flow cytometric method; assay type: functional
NCI-H929 [25] = test: Induction of apoptosis in human NCI-H929 cells assessed as early apoptotic cells at […] after 48 hrs in presence of bortezomib by Annexin-V/propidium iodide staining based flow cytometric method (reference value: 17.1%); assay type: functional
RPMI-8226 [26] = test: Induction of apoptosis in human RPMI8226 cells assessed as late apoptotic cells at […] after 48 hrs in presence of bortezomib by Annexin-V/propidium iodide staining based flow cytometric method (reference value: 0.21%); assay type: functional
RPMI-8226 [27] = test: Cytotoxicity against human RPMI8226 cells assessed as reduction in cell viability at 42 nM after 48 hrs by CCK8 assay relative to control; assay type: functional
NCI-H929 [28] = test: Induction of apoptosis in human NCI-H929 cells assessed as necrotic cells at […] after 48 hrs in presence of bortezomib by Annexin-V/propidium iodide staining based flow cytometric method (reference value: 0.0034%); assay type: functional
Plasma [29] = test: Anticoagulant activity in human platelet poor plasma assessed as prothrombin time at 100 uM incubated for 15 mins at room temperature and subsequent incubation for 2 mins at 37 degreeC followed by PBS addition and measured after 3 mins for every secs in presence of calcium thromboplastin; assay type: functional
RPMI-8226 [30] = test: Cell cycle arrest in human RPMI8226 cells assessed as reduction in accumulation at G2/M phase at […] in presence of bortezomib after 48 hrs by propidium iodide/RNase staining based flow cytometric method relative to bortezomib; assay type: functional
NCI-H929 [31] = test: Cell cycle arrest in human NCI-H929 cells assessed as accumulation at G0/G1 phase at […] in presence of bortezomib after 48 hrs by propidium iodide/RNase staining based flow cytometric method relative to bortezomib alone; assay type: functional
RPMI-8226 [32] = test: Induction of apoptosis in human RPMI8226 cells assessed as early apoptotic cells at […] after 48 hrs in presence of bortezomib by Annexin-V/propidium iodide staining based flow cytometric method (reference value: 1.05%); assay type: functional

Work on `COc1ccc(-c2noc(CC(=O)O)c2-c2ccc(OC)cc2)cc1` [MOFEZOLAC] yielded an Activity (NCI-H929 [1]) of 0.13%, an Activity (NCI-H929 [2]) of 18.7% and an APTT (Plasma [3]) of 50.8 s. The Activity (NCI-H929 [4]) was 0%, the Activity (NCI-H929 [5]) was “inactive” and the Activity [6] was “Non-Toxic”. The Activity (RPMI-8226 [7]) was 0.006%, the Activity [8] was “Non-Toxic” and the Activity (RPMI-8226 [9]) was “inactive”. For the same molecule, the Activity (RPMI-8226 [10]) was “Active”, the Activity (NCI-H929 [11]) was “inactive” and the viability at […] (RPMI-8226 [12]) was 91.8%. The IC50 (Platelet) was 450 nM, the Activity (NCI-H929 [13]) was 0.24% and the Activity [14] was “Non-Toxic”. For the same molecule, the Activity [15] was “Non-Toxic”, the Activity [16] was “Non-Toxic” and the Activity [17] was “Non-Toxic”. For the same molecule, the viability at […] (NCI-H929 [18]) was 35.4%, the hemolysis at 3 h, 100 µM [19] was 0% and the Activity (RPMI-8226 [20]) was “Active”. The viability at […] (NCI-H929 [21]) was 81.1%, the Activity (NCI-H929 [22]) was 15% and the Activity (RPMI-8226 [23]) was 56%. For the same molecule, the Activity (RPMI-8226 [24]) was “inactive”, the Activity (NCI-H929 [25]) was 64.3% and the Activity (RPMI-8226 [26]) was 0.31%. It also gave an Activity (RPMI-8226 [27]) of 1%, an Activity (NCI-H929 [28]) of 0% and a PT (Plasma [29]) of 14.2 s. For the same molecule, the Activity (RPMI-8226 [30]) was “Active”, the Activity (NCI-H929 [31]) was 15% and the Activity (RPMI-8226 [32]) was 7.86%.

From ChEMBL document CHEMBL4422618, “Translational impact of novel widely pharmacological characterized mofezolac-derived COX-1 inhibitors combined with bortezomib on human multiple myeloma cell lines viability” (Eur J Med Chem, 2019)
